The source of these data is patent US20230303599A1, “PRODRUGS OF PHOSPHONAMIDE NUCLEOTIDE ANALOGUES AND THEIR PHARMACEUTICAL USE” (priority 2020, published 2023).

In one data set the test system is HIV-1 (IIIB). Description: Antiviral (HIV) assay in MT-4 cells. It counts as cell-based. As to conditions: HIV-1 IIIB in MT-4 cells, 5 days, Cell Titer Glo; average of at least two independent experiments; read-out: MT4 HIV EC50. On the procedure:
Example 104: Antiviral (HIV) Assay in MT-4 Cells
Compounds were tested in a high-throughput 384-well assay format for their ability to inhibit the replication of HIV-1 (IIIB) in MT-4 cells. Compounds were serially diluted (1:3) in DMSO on 384-well polypropylene plates and further diluted 200-fold into complete RPMI media (10% FBS, 1% P/S) using the Biotek Micro Flow and Labcyte ECHO acoustic dispenser. Each plate contained up to 8 test compounds, with negative (no drug) and positive (5 μM AZT) controls. MT-4 cells were pre-treated with 10 μL of either RPMI (mock-infected) or a fresh 1:250 dilution of HIV-1 IIIB concentrated virus stock. Infected and uninfected MT-4 cells were further diluted in complete RPMI media and added to each plate using a Micro Flow dispenser. After 5 days incubation in a humidified and temperature-controlled incubator (37° C.), Cell Titer Glo (Promega) was added to the assay plates and chemiluminescence read using an Envision plate-reader. EC50 values were defined as the compound concentration that causes a 50% decrease in luminescence signal and were calculated using a sigmoidal dose-response model to generate curve fits and are shown in Table 1.

In a further data set the test system is PBMCs. Description: TFV-DP formation in peripheral blood mononuclear cells (PBMCs). It counts as in vitro ADME, human. The note with it: 1 μM compound, 2 hrs at 37° C., 50% serum, activated PBMCs; average of at least two independent experiments. As for the experimental part: Example 109: TFV-DP Formation in Peripheral Blood Mononuclear Cells (PBMCs)
Compounds were tested in a 96-well assay format for the level of TFV-DP loading in PBMCs in the presence of human serum. PBMCs were activated with 100 units/mL recombinant human […] and […] phytohaemagglutinin (PHA) for 36 hrs. After activation, PBMCs (2 million) were incubated with compounds (1 μM) and cell culture media with 50% serum in a 96 well plate for 2 hrs at 37° C. Cells were transferred to a 96 well deep block plate and spun down. Liquid was removed, and cells were washed 2× with 1 mL of 0.9% saline with spin downs between washes. After a final wash and liquid removal, 500 μL of MeOH+200 nM C1-ATP+200 nM [adenine-^13Cs]-tenofovir diphosphate (tetra ammonium salt) was added and thoroughly mixed with the cells. The plate was then spun down and 450 μL of sample was transferred to a new 96 well plate. Supernatants were then evaporated, reconstituted in 80 μl of 1 mM ammonium phosphate and thoroughly vortexed. Blank samples were pooled for serial dilution to construct calibration standards for TFV, TFV-DP and TFV-TP in pmol/million cells. Samples were then transferred to a short-well 96 well plate, centrifuged and injected on an LC-MS/MS for quantification. Values were reported in μM units using an intracellular volume of […].

For `CC(C)CCCOC(=O)C(C)(C)NP(=O)(CO[C@H](C)Cn1cnc2c(N)ncnc21)NC(C)(C)C(=O)OCCCC(C)C` [Example 67, Bis(4-methylpentyl) 2,2′-(((((1-(6-amino-9H-purin-9-yl)propan-2-yl)oxy)methyl)phosphoryl)bis(azanediyl))(R)-bis(2-methylpropanoate)], the EC50 in the data set with HIV-1 (IIIB) was 8 nM. Moreover, the “Average PBMC TFV-DP” value in the data set on PBMCs was found to be 5.5 µM.

By EC50 is commonly meant the midpoint of the concentration-response curve.
